The experiment deals with recombinant rabies virus 1088 strain expressing Gaussia Luciferase (GLuc) (1088/GLuc). The experiment is classed as cell-based. The note with it: read-out: Anti-rabies activity.
Regarding `N=C(N)NCCC[C@@H]1[C@H]2CN[C@@]3(C(=O)NCc4ccc(F)cc4)[C@@H](C2)CN(Cc2ccc(O)cc2)[C@@H]13` [IB-207], the IC50 is 10 to 30 µM.
Regarding `N=C(N)NCCC[C@@H]1[C@H]2CN[C@@]3(C(=O)NCCc4ccccc4)[C@@H](C2)CN(Cc2ccccc2)[C@@H]13` [IB-247], the IC50 was 10 to 30 µM.
As for `CCCCCCNC(=O)[C@]12NC[C@H]3C[C@H]1CN(Cc1ccccc1)[C@H]2[C@@H]3CCCNC(=N)N` [IB-249], the IC50 was in the range of 10 to 30 µM.
Turning to `N=C(N)NCCC[C@@H]1[C@H]2CN[C@@]3(C(=O)NCc4ccc(F)cc4)[C@@H](C2)CN(Cc2ccccc2)[C@@H]13` [IB-250], the IC50 lay within 10 to 30 µM.
In the case of `CCCCCCNC(=O)[C@]12NC[C@H]3C[C@H]1CN(CCc1ccccc1)[C@H]2[C@@H]3CCCNC(=N)N` [IB-256], the IC50 lay within 10 to 30 µM.
As for `N=C(N)NCCC[C@@H]1[C@H]2CN[C@@]3(C(=O)NCc4ccccc4)[C@@H](C2)CN(Cc2ccc(F)cc2)[C@@H]13` [IB-260], the IC50 fell in the range of 10 to 30 µM.
Then `N=C(N)NCCC[C@@H]1[C@H]2CN[C@@]3(C(=O)NCCc4ccccc4)[C@@H](C2)CN(Cc2ccc(F)cc2)[C@@H]13` [IB-262], with 10 to 30 µM; and `CC(C)CC[C@@H]1[C@H]2CN[C@@]3(C(=O)NCCC(N)=O)[C@@H](C2)CN(Cc2ccccc2)[C@@H]13` [IB-274], with 10 to 30 µM.
With `N=C(N)NCCCNC(=O)[C@]12NC[C@H]3C[C@H]1CN(Cc1ccccc1)[C@H]2[C@@H]3Cc1ccccc1` [IB-276], the IC50 was 10 to 30 µM.
As for `N=C(N)NCCCNC(=O)[C@]12NC[C@H]3C[C@H]1CN(Cc1ccccc1)[C@H]2[C@@H]3CCc1ccccc1` [IB-279], the IC50 fell in the range of 10 to 30 µM.
As for `N=C(N)NCCCNC(=O)[C@]12NC[C@H]3C[C@H]1CN(Cc1ccccc1)[C@H]2[C@@H]3Cc1cccc2ccccc12` [IB-280], the IC50 was in the range of 10 to 30 µM.
With `N=C(N)NCCCN1C[C@@H]2C[C@@H]3CN[C@]2(C(=O)NCc2ccccc2)[C@@H]1[C@@H]3Cc1cccc2ccccc12` [IB-300], the IC50 was 10 to 30 µM.
The same measure for `N=C(N)NCCCN1C[C@@H]2C[C@@H]3CN[C@]2(C(=O)NCCc2ccccc2)[C@@H]1[C@@H]3Cc1cccc2ccccc12` [IB-327]: 10 to 30 µM; for `CC(C)CC[C@@H]1[C@H]2CN[C@@]3(C(=O)NCCC(N)=O)[C@@H](C2)CN(CCc2ccccc2)[C@@H]13` [IB-342]: 10 to 30 µM; for `N=C(N)NCCCNC(=O)[C@]12NC[C@H]3C[C@H]1CN(CCc1ccccc1)[C@H]2[C@@H]3Cc1ccccc1` [IB-344]: 10 to 30 µM.
For `CC(C)CC[C@@H]1[C@H]2CN[C@@]3(C(=O)NCCCNC(=N)N)[C@@H](C2)CN(CCc2ccccc2)[C@@H]13` [IB-346], the IC50 is 10 to 30 µM.
Regarding `N=C(N)NCCCNC(=O)[C@]12NC[C@H]3C[C@H]1CN(CCc1ccccc1)[C@H]2[C@@H]3Cc1cccc2ccccc12` [IB-347], the IC50 is 10 to 30 µM.
Then `CC(C)CC[C@@H]1[C@H]2CN[C@@]3(C(=O)NCCC(N)=O)[C@@H](C2)CN(Cc2cccc4ccccc24)[C@@H]13` [IB-349], with less than 5 µM; and `CC(C)C[C@@H]1[C@H]2CN[C@@]3(C(=O)NCCCNC(=N)N)[C@@H](C2)CN(Cc2cccc4ccccc24)[C@@H]13` [IB-350], with 10 to 30 µM.
The same measure for `N=C(N)NCCCNC(=O)[C@]12NC[C@H]3C[C@H]1CN(Cc1cccc4ccccc14)[C@H]2[C@@H]3Cc1ccccc1` [IB-351]: 10 to 30 µM; for `CC(C)CC[C@@H]1[C@H]2CN[C@@]3(C(=O)NCCCNC(=N)N)[C@@H](C2)CN(Cc2cccc4ccccc24)[C@@H]13` [IB-353]: less than 5 µM; for `N=C(N)NCCCNC(=O)[C@]12NC[C@H]3C[C@H]1CN(Cc1cccc4ccccc14)[C@H]2[C@@H]3CCc1ccccc1` [IB-354]: less than 5 µM.
Take `CC(C)CC[C@@H]1[C@H]2CN[C@@]3(C(=O)NCCC(N)=O)[C@@H](C2)CN(CC2CCCCC2)[C@@H]13` [IB-357]: the IC50 lay within 10 to 30 µM.
For `CC(C)CC[C@@H]1[C@H]2CN[C@@]3(C(=O)NCCCNC(=N)N)[C@@H](C2)CN(CC2CCCCC2)[C@@H]13` [IB-361], the IC50 was in the range of 10 to 30 µM.
Then `N=C(N)NCCCNC(=O)[C@]12NC[C@H]3C[C@H]1CN(CC1CCCCC1)[C@H]2[C@@H]3CCc1ccccc1` [IB-362], with less than 5 µM; and `CC(C)CC[C@@H]1[C@H]2CN[C@@]3(C(=O)NCCC(N)=O)[C@@H](C2)CN(Cc2ccc(F)cc2)[C@@H]13` [IB-365], with 10 to 30 µM; and `CC(C)CC[C@@H]1[C@H]2CN[C@@]3(C(=O)NCCCNC(=N)N)[C@@H](C2)CN(Cc2ccc(F)cc2)[C@@H]13` [IB-369], with 10 to 30 µM.
Then `CC(C)CC[C@@H]1[C@H]2CN[C@@]3(C(=O)NCC(C)C)[C@@H](C2)CN(CCO)[C@@H]13` [IB-372], with 10 to 30 µM.
On to `CC(C)CC[C@@H]1[C@H]2CN[C@@]3(C(=O)NCC(C)C)[C@@H](C2)CN(CC(C)C)[C@@H]13` [IB-378], for which the IC50 was less than 5 µM.
For the compound `CC(C)CCN1C[C@@H]2C[C@@H]3CN[C@]2(C(=O)NCCC(=O)O)[C@@H]1[C@@H]3Cc1cccc2ccccc12` [IB-381], the IC50 lay in the range of 10 to 30 µM.
The same measure for `O=C(O)CCNC(=O)[C@]12NC[C@H]3C[C@H]1CN(Cc1ccc(F)cc1)[C@H]2[C@@H]3Cc1cccc2ccccc12` [IB-384]: 10 to 30 µM; for `CC(C)CCN1C[C@@H]2C[C@@H]3CN[C@]2(C(=O)NCc2ccc(F)cc2)[C@@H]1[C@@H]3CCC(=O)O` [IB-386]: 10 to 30 µM; for `O=C(O)CC[C@@H]1[C@H]2CN[C@@]3(C(=O)NCc4cccc5ccccc45)[C@@H](C2)CN(CC2CCCCC2)[C@@H]13` [IB-389]: 10 to 30 µM.
Then `O=C(O)CC[C@@H]1[C@H]2CN[C@@]3(C(=O)NCc4cccc5ccccc45)[C@@H](C2)CN(Cc2ccc(F)cc2)[C@@H]13` [IB-390], with 10 to 30 µM; and `CC(C)C[C@@H]1[C@H]2CN[C@@]3(C(=O)NCc4cccc5ccccc45)[C@@H](C2)CN(CCC(=O)O)[C@@H]13` [IB-392], with 10 to 30 µM.
The same measure for `O=C(O)CCN1C[C@@H]2C[C@@H]3CN[C@]2(C(=O)NCc2ccc(F)cc2)[C@@H]1[C@@H]3Cc1ccccc1` [IB-394]: 10 to 30 µM; for `CC(C)CC[C@@H]1[C@H]2CN[C@@]3(C(=O)NCc4cccc5ccccc45)[C@@H](C2)CN(CCC(=O)O)[C@@H]13` [IB-398]: 10 to 30 µM.
For the compound `CC(C)CC[C@@H]1[C@H]2CN[C@@]3(C(=O)NCc4ccc(F)cc4)[C@@H](C2)CN(CCC(=O)O)[C@@H]13` [IB-399], the IC50 lay in the range of 10 to 30 µM.
Then `CC(C)CC[C@@H]1[C@H]2CN[C@@]3(C(=O)NCc4ccc(O)cc4)[C@@H](C2)CN(CCC(=O)O)[C@@H]13` [IB-402], with 10 to 30 µM; and `O=C(O)CCNC(=O)[C@]12NC[C@H]3C[C@H]1CN(Cc1ccc(O)cc1)[C@H]2[C@@H]3Cc1cccc2ccccc12` [IB-410], with 10 to 30 µM.
Then `O=C(NCc1ccc(O)cc1)[C@]12NC[C@H]3C[C@H]1CN(Cc1cccc4ccccc14)[C@H]2[C@@H]3Cc1cccc2ccccc12` [IB-417], with 10 to 30 µM.
Then `O=C(O)CC[C@@H]1[C@H]2CN[C@@]3(C(=O)NCc4cccc5ccccc45)[C@@H](C2)CN(CCO)[C@@H]13` [IB-425], with 10 to 30 µM; and `CC(C)CCN1C[C@@H]2C[C@@H]3CN[C@]2(C(=O)NCc2cccc4ccccc24)[C@@H]1[C@@H]3CO` [IB-426], with less than 5 µM.
On to `CC(C)CNC(=O)[C@]12NC[C@H]3C[C@H]1CN(CCC(=O)O)[C@H]2[C@@H]3CCc1ccccc1` [IB-430], for which the IC50 is less than 5 µM.
Then `CC(C)CNC(=O)[C@]12NC[C@H]3C[C@H]1CN(CCC(=O)O)[C@H]2[C@@H]3CO` [IB-431], with 10 to 30 µM.
Then `CC(C)C[C@@H]1[C@H]2CN[C@@]3(C(=O)NCc4ccc(O)cc4)[C@@H](C2)CN(CCc2ccccc2)[C@@H]13` [IB-449], with 10 to 30 µM; and `CC(C)C[C@@H]1[C@H]2CN[C@@]3(C(=O)NCc4ccc(O)cc4)[C@@H](C2)CN(Cc2ccc(F)cc2)[C@@H]13` [IB-458], with 10 to 30 µM; and `O=C(NCCO)[C@]12NC[C@H]3C[C@H]1CN(Cc1cccc4ccccc14)[C@H]2[C@@H]3Cc1ccc(O)cc1` [IB-459], with 10 to 30 µM.
Take `CC(C)CC[C@@H]1[C@H]2CN[C@@]3(C(=O)NCCO)[C@@H](C2)CN(CCc2ccccc2)[C@@H]13` [IB-461]: the IC50 was in the range of 10 to 30 µM.
The same measure for `CC(C)C[C@@H]1[C@H]2CN[C@@]3(C(=O)NCc4ccc(O)cc4)[C@@H](C2)CN(Cc2ccccc2)[C@@H]13` [IB-464]: less than 5 µM.
The same measure for `CC(C)CC[C@@H]1[C@H]2CN[C@@]3(C(=O)NCc4ccc(O)cc4)[C@@H](C2)CN(CC(C)C)[C@@H]13` [IB-465]: 10 to 30 µM; for `O=C(NCc1ccc(O)cc1)[C@]12NC[C@H]3C[C@H]1CN(CCO)[C@H]2[C@@H]3Cc1cccc2ccccc12` [IB-470]: 10 to 30 µM.
The same measure for `CCCCCCNC(=O)[C@]12NC[C@H]3C[C@H]1CN(CCO)[C@H]2[C@@H]3Cc1ccccc1` [IB-476]: less than 5 µM; for `CCCCCCNC(=O)[C@]12NC[C@H]3C[C@H]1CN(CCO)[C@H]2[C@@H]3CC(C)C` [IB-477]: less than 5 µM; for `CCCCCCNC(=O)[C@]12NC[C@H]3C[C@H]1CN(CCO)[C@H]2[C@@H]3Cc1ccc(O)cc1` [IB-478]: 10 to 30 µM.
Turning to `O=C(NCc1ccc(F)cc1)[C@]12NC[C@H]3C[C@H]1CN(CCO)[C@H]2[C@@H]3Cc1ccccc1` [IB-479], the IC50 was in the range of 10 to 30 µM.
Consider `CC(C)CCN1C[C@@H]2C[C@@H]3CN[C@]2(C(=O)NCc2ccc(F)cc2)[C@@H]1[C@@H]3Cc1ccc(O)cc1` [IB-481], for which the IC50 is less than 5 µM.
As for `CCCCCCNC(=O)[C@]12NC[C@H]3C[C@H]1CN(CCO)[C@H]2[C@@H]3CCC(C)C` [IB-490], the IC50 was less than 5 µM.
On to `O=C(NCc1ccc(F)cc1)[C@]12NC[C@H]3C[C@H]1CN(CCO)[C@H]2[C@@H]3CCc1ccccc1` [IB-492], for which the IC50 is less than 5 µM.
The same measure for `CC(C)C[C@@H]1[C@H]2CN[C@@]3(C(=O)NCCc4ccccc4)[C@@H](C2)CN(CC(C)C)[C@@H]13` [IB-495]: less than 5 µM; for `CC(C)CN1C[C@@H]2C[C@@H]3CN[C@]2(C(=O)NCc2ccc(F)cc2)[C@@H]1[C@@H]3Cc1ccc(O)cc1` [IB-498]: less than 5 µM; for `CC(C)C[C@@H]1[C@H]2CN[C@@]3(C(=O)NCc4ccc(F)cc4)[C@@H](C2)CN(Cc2ccc(O)cc2)[C@@H]13` [IB-499]: less than 5 µM.

These data come from patent US11780841B2, “3,6-methano-1H-pyrrolo[3,2-b]pyridine and 3,6-methano-1H-pyrrolo[3,2-c]pyridine compounds and medicaments using same” (priority 2018, dated 2023).
